Laboratory results published in PubChem BioAssay AID342 (DTP/NCI, 2004).
Where “and” joins values, the source holds several entries; their conditions need not be identical. Identical values can stand only once.

Test system: Swiss mice, Sarcoma 180 sc, mean tumor weight T/C
Test: NCI In Vivo Anticancer Drug Screen. Data for tumor model Sarcoma 180 (subcutaneous) in Swiss mice
Settings: endpoint: mean tumor weight, higher = larger tumour
Summary of the method: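 T/C ratio: treated over vehicle-treated controls, measuring survival or tumor size in transplanted-tumor mice.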

[1] = dose: 31.25 mg/kg/injection, schedule: Q#A X014 (ip), vehicle: carboxymethylcellulose (CMC)
[2] = dose: 62.5 mg/kg/injection, schedule: Q#A X014 (ip), vehicle: carboxymethylcellulose (CMC)
[3] = dose: 125.0 mg/kg/injection, schedule: Q#A X014 (ip), vehicle: carboxymethylcellulose (CMC)
[4] = dose: 250.0 mg/kg/injection, schedule: Q#A X014 (ip), vehicle: carboxymethylcellulose (CMC)

## COC(=O)[C@@H]1c2cc3c(c(O)c2[C@@H](OC2OC(C)C(OC)C(C)(OC)C2OC)C[C@]1(C)O)C(=O)c1c(O)cc2c(c1C3=O)O[C@H]1O[C@]2(C)[C@H](O)[C@@H](N(C)C)[C@@H]1O (some centres not stated)
dose: 0.2 mg/kg/injection, schedule: Q01DX007 (ip), vehicle: saline
  T/C: 77 % of control
dose: 0.3 mg/kg/injection, schedule: Q01DX007 (ip), vehicle: saline
  T/C: 81 % of control
dose: 0.44 mg/kg/injection, schedule: Q01DX007 (ip), vehicle: saline
  T/C: 60 % of control
dose: 0.67 mg/kg/injection, schedule: Q01DX007 (ip), vehicle: saline
  T/C: 57 % of control
dose: 1.0 mg/kg/injection, schedule: Q01DX007 (ip), vehicle: saline
  T/C: 50 % of control

## CCCCn1cnc2c(=S)nc(N)[nH]c21
dose: 1.65 mg/kg/injection, schedule: Q#A X014 (ip), vehicle: methylcellulose (MC)
  T/C: 82 % of control
dose: 2.5 mg/kg/injection, schedule: Q#A X014 (ip), vehicle: methylcellulose (MC)
  T/C: 93 % of control
dose: 3.75 mg/kg/injection, schedule: Q#A X014 (ip), vehicle: methylcellulose (MC)
  T/C: 62 % of control
dose: 5.5 mg/kg/injection, schedule: Q#A X014 (ip), vehicle: methylcellulose (MC)
  T/C: 49 % of control

## C[C@@H]1C[C@@]2(C)[C@@H](CC[C@@H]3[C@@H]2CC[C@]2(C)[C@@H](O)CC[C@@H]32)CC1=O
dose: 25.0 mg/kg/injection, schedule: Q#A X014 (oral), vehicle: steriod suspending solution
  T/C: 120 % of control
dose: 75.0 mg/kg/injection, schedule: Q#A X014 (oral), vehicle: steriod suspending solution
  T/C: 75 % of control
dose: 187.5 mg/kg/injection, schedule: Q#A X014 (oral), vehicle: steriod suspending solution
  T/C: 63 % of control

## O=C(CCN1CC1)OCCOC(=O)CCN1CC1
dose: 4.0 mg/kg/injection, schedule: Q#A X014 (ip), vehicle: methylcellulose (MC)
  T/C: 44 % of control
dose: 6.0 mg/kg/injection, schedule: Q#A X014 (ip), vehicle: methylcellulose (MC)
  T/C: 60 % of control
dose: 9.0 mg/kg/injection, schedule: Q#A X014 (ip), vehicle: methylcellulose (MC)
  T/C: 50 % of control

## Cc1ccccn1
dose: 200.0 mg/kg/injection, schedule: Q01DX007 (ip), vehicle: saline
  T/C: 87 % of control
dose: 400.0 mg/kg/injection, schedule: Q01DX007 (ip), vehicle: saline
  T/C: 151 % of control

## CC(=O)Nc1c(Cl)c(Cl)c2c(c1Cl)Cc1cc(Cl)c(Cl)cc1-2
dose: 3.1 mg/kg/injection, schedule: Q01DX007 (ip), vehicle: carboxymethylcellulose (CMC)
  T/C: 35 % of control
dose: 6.2 mg/kg/injection, schedule: Q01DX007 (ip), vehicle: carboxymethylcellulose (CMC)
  T/C: 52 % of control
dose: 12.5 mg/kg/injection, schedule: Q01DX007 (ip), vehicle: carboxymethylcellulose (CMC)
  T/C: 48 % of control and 54 % of control
dose: 21.0 mg/kg/injection, schedule: Q01DX007 (ip), vehicle: other
  T/C: 63 % of control
dose: 32.0 mg/kg/injection, schedule: Q01DX007 (ip), vehicle: other
  T/C: 39 % of control
dose: 33.0 mg/kg/injection, schedule: Q01DX007 (ip), vehicle: other
  T/C: 49 % of control
dose: 48.0 mg/kg/injection, schedule: Q01DX007 (ip), vehicle: other
  T/C: 77 % of control
dose: 49.0 mg/kg/injection, schedule: Q01DX007 (ip), vehicle: other
  T/C: 40 % of control
dose: 73.0 mg/kg/injection, schedule: Q01DX007 (ip), vehicle: other
  T/C: 31 % of control
dose: 250.0 mg/kg/injection, schedule: Q01DX007 (ip), vehicle: other
  T/C: 21 % of control and 43 % of control

## c1ncc2[nH]cnc2n1
[1]
  T/C: 90 % of control
dose: 31.31 mg/kg/injection, schedule: Q#A X014 (ip), vehicle: carboxymethylcellulose (CMC)
  T/C: 108 % of control
dose: 57.5 mg/kg/injection, schedule: Q01DX007 (ip), vehicle: carboxymethylcellulose (CMC)
  T/C: 70 % of control
[2]
  T/C: 120 % of control
dose: 62.62 mg/kg/injection, schedule: Q#A X014 (ip), vehicle: carboxymethylcellulose (CMC)
  T/C: 91 % of control
dose: 76.65 mg/kg/injection, schedule: Q#A X014 (ip), vehicle: carboxymethylcellulose (CMC)
  T/C: 120 % of control
dose: 115.0 mg/kg/injection, schedule: Q01DX007 (ip), vehicle: carboxymethylcellulose (CMC)
  T/C: 67 % of control
dose: 115.0 mg/kg/injection, schedule: Q#A X014 (ip), vehicle: carboxymethylcellulose (CMC)
  T/C: 93 % of control
[3]
  T/C: 59 % of control
dose: 125.25 mg/kg/injection, schedule: Q#A X014 (ip), vehicle: carboxymethylcellulose (CMC)
  T/C: 66 % of control
dose: 153.3 mg/kg/injection, schedule: Q#A X014 (ip), vehicle: carboxymethylcellulose (CMC)
  T/C: 95 % of control
dose: 196.4 mg/kg/injection, schedule: Q01DX007 (ip), vehicle: carboxymethylcellulose (CMC)
  T/C: 88 % of control
dose: 200.4 mg/kg/injection, schedule: Q01DX007 (ip), vehicle: carboxymethylcellulose (CMC)
  T/C: 99 % of control
dose: 230.0 mg/kg/injection, schedule: Q01DX007 (ip), vehicle: carboxymethylcellulose (CMC)
  T/C: 42 % of control
dose: 230.0 mg/kg/injection, schedule: Q#A X014 (ip), vehicle: carboxymethylcellulose (CMC)
  T/C: 39 % of control
dose: 245.5 mg/kg/injection, schedule: Q01DX007 (ip), vehicle: carboxymethylcellulose (CMC)
  T/C: 90 % of control
[4]
  T/C: 27 % of control
dose: 250.5 mg/kg/injection, schedule: Q01DX007 (ip), vehicle: carboxymethylcellulose (CMC)
  T/C: 111 % of control
dose: 250.5 mg/kg/injection, schedule: Q#A X014 (ip), vehicle: carboxymethylcellulose (CMC)
  T/C: 9 % of control
dose: 327.3 mg/kg/injection, schedule: Q01DX007 (ip), vehicle: carboxymethylcellulose (CMC)
  T/C: 44 % of control
dose: 334.0 mg/kg/injection, schedule: Q01DX007 (ip), vehicle: carboxymethylcellulose (CMC)
  T/C: 68 % of control
dose: 460.0 mg/kg/injection, schedule: Q01DX007 (ip), vehicle: carboxymethylcellulose (CMC)
  T/C: 13 % of control
dose: 491.0 mg/kg/injection, schedule: Q01DX007 (ip), vehicle: carboxymethylcellulose (CMC)
  T/C: 48 % of control
dose: 501.0 mg/kg/injection, schedule: Q01DX007 (ip), vehicle: carboxymethylcellulose (CMC)
  T/C: 12 % of control

## C=CC1CN2CCC1CC2C(O)c1ccnc2ccc(OC)cc12 (configuration not stated)
dose: 30.16 mg/kg/injection, schedule: Q01DX007 (ip), vehicle: other
  T/C: 96 % of control
[1]
  T/C: 101 % of control
dose: 47.12 mg/kg/injection, schedule: Q01DX007 (ip), vehicle: carboxymethylcellulose (CMC)
  T/C: 92 % of control
dose: 56.25 mg/kg/injection, schedule: Q01DX007 (ip), vehicle: carboxymethylcellulose (CMC)
  T/C: 89 % of control
dose: 60.32 mg/kg/injection, schedule: Q01DX007 (ip), vehicle: other
  T/C: 75 % of control
[2]
  T/C: 120 % of control
dose: 94.25 mg/kg/injection, schedule: Q01DX007 (ip), vehicle: carboxymethylcellulose (CMC)
  T/C: 93 % of control
dose: 112.5 mg/kg/injection, schedule: Q01DX007 (ip), vehicle: carboxymethylcellulose (CMC)
  T/C: 80 % of control
dose: 120.65 mg/kg/injection, schedule: Q01DX007 (ip), vehicle: other
  T/C: 99 % of control
[3]
  T/C: 121 % of control
dose: 188.5 mg/kg/injection, schedule: Q01DX007 (ip), vehicle: carboxymethylcellulose (CMC)
  T/C: 78 % of control
dose: 225.0 mg/kg/injection, schedule: Q01DX007 (ip), vehicle: carboxymethylcellulose (CMC)
  T/C: 118 % of control
dose: 241.3 mg/kg/injection, schedule: Q01DX007 (ip), vehicle: other
  T/C: 97 % of control
[4]
  T/C: 50 % of control

## Cc1ccc(NC(C(=O)c2ccccc2)c2ccccc2)cc1 (configuration not stated)
dose: 150.0 mg/kg/injection, schedule: Q01DX007 (ip), vehicle: saline
  T/C: 39 % of control
dose: 225.0 mg/kg/injection, schedule: Q01DX007 (ip), vehicle: saline
  T/C: 20 % of control

## CCOc1ccc2c(c1)CC[C@@H]1[C@@H]2CC[C@@]2(C)[C@H]1CC[C@]2(C)O
dose: 0.5 mg/kg/injection, schedule: Q#A X014 (sc), vehicle: steriod suspending solution
  T/C: 92 % of control
dose: 5.0 mg/kg/injection, schedule: Q#A X014 (sc), vehicle: steriod suspending solution
  T/C: 79 % of control
dose: 50.0 mg/kg/injection, schedule: Q#A X014 (sc), vehicle: steriod suspending solution
  T/C: 72 % of control

## Cc1ccc(NCC2(/N=C/c3ccccc3)OC(CO)C(O)C2O)cc1 (configuration not stated)
dose: 111.0 mg/kg/injection, schedule: Q#A X014 (ip), vehicle: methylcellulose (MC)
  T/C: 71 % of control and 72 % of control
dose: 250.0 mg/kg/injection, schedule: Q#A X014 (ip), vehicle: methylcellulose (MC)
  T/C: 67 % of control and 90 % of control

## CC(=O)OCC(=O)[C@@]1(O)CC[C@H]2[C@@H]3C[C@H](F)C4=CC(=O)CC[C@]4(C)[C@H]3C(=O)C[C@@]21C
dose: 2.5 mg/kg/injection, schedule: Q01DX007 (sc), vehicle: steriod suspending solution
  T/C: 60 % of control
dose: 5.0 mg/kg/injection, schedule: Q01DX007 (sc), vehicle: steriod suspending solution
  T/C: 49 % of control
dose: 10.0 mg/kg/injection, schedule: Q01DX007 (sc), vehicle: steriod suspending solution
  T/C: 51 % of control
dose: 19.0 mg/kg/injection, schedule: Q01DX007 (sc), vehicle: steriod suspending solution
  T/C: 41 % of control
dose: 29.0 mg/kg/injection, schedule: Q01DX007 (sc), vehicle: steriod suspending solution
  T/C: 31 % of control
